Our source for the IC50 values is patent US20170275270A1, “BENZYL SUBSTITUTED INDAZOLES” (Bayer Pharma Aktiengesellschaft, priority 2014, published 2017).

Where “and” joins values, the source holds several entries; their conditions need not be identical. Equal entries are not always repeated. Structures can show the parent of a compound that is named as a salt. Some results are limits rather than exact numbers.

For the first assay, the target named is T1, catalytic domain of human Bub1 (amino acids 704-1085) (Homo sapiens, UniProt O43683).
T1 construct: catalytic domain of human Bub1 (amino acids 704-1085); His6 (N); made in house; host or cells: Hi5 insect cells
T1 sequence (O43683 704-1085): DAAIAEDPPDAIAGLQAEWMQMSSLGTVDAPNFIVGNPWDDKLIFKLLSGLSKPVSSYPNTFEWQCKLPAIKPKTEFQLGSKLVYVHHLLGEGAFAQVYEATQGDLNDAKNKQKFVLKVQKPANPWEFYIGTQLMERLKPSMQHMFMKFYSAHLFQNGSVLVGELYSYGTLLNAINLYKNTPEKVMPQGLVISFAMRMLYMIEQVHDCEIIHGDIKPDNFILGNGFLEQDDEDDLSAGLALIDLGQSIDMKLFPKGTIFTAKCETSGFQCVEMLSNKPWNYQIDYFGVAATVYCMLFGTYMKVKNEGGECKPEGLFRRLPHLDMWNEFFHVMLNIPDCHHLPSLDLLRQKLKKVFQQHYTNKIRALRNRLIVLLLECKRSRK
The assay can be described thus: Bub1 kinase assay (TR-FRET). It counts as biochemical. As to conditions: 10 μM ATP, read-out: Biological Assay 1: Bub1 kinase assay median IC50. The procedure, abridged: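 TR-FRET read-out (Eu-anti-mouse IgG/anti-phosphoserine antibody to streptavidin-XL665 on biotinylated peptide) after EDTA stop and 1 h complex formation at 22° C. Kinase reaction ran 60 min at 22° C with 1:3.4 serial dilutions from 2 mM DMSO stocks. IC50 from 4-parameter logistic fit of normalized inhibition.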
(In TR-FRET formats the signal depends on donor and acceptor labels being close together.)
`CCOc1cc(F)c(Cn2nc(-c3ncc(OCCN)c(Nc4ccncc4)n3)c3ccccc32)c(F)c1` [Example 3-4-1, 5-(2-aminoethoxy)-2-[1-(4-ethoxy-2,6-difluorobenzyl)-1H-indazol-3-yl]-N-(pyridin-4-yl)pyrimidin-4-amine, reference compound]: the IC50 was determined as 0.0034 µM.
On the same count and under the same terms, next, `COCCOc1cc(F)c(Cn2nc(-c3nc(Nc4ccncc4OC)cc(C(C)C)n3)c3ccccc32)c(F)c1` [Example 2-12-73, 2-{1-[2,6-difluoro-4-(2-methoxyethoxy)benzyl]-1H-indazol-3-yl}-6-isopropyl-N-(3-methoxypyridin-4-yl)pyrimidin-4-amine]: 0.015 µM.

Staying with this assay, now noted: Biological Assay 1: Bub1 kinase assay median IC50, 10 μM ATP.
`CCOc1cc(F)c(Cn2nc(-c3nc(Nc4ccnc(C)n4)cc(-c4nccs4)n3)c3ccccc32)c(F)c1` [Example 2-12-96, 2-[1-(4-ethoxy-2,6-difluorobenzyl)-1H-indazol-3-yl]-N-(2-methylpyrimidin-4-yl)-6-(1,3-thiazol-2-yl)pyrimidin-4-amine]: the IC50 is > 20 µM and 9.2 µM.
On the same count and under the same terms, the figure for `COCCOc1cc(F)c(Cn2nc(-c3nc(C)c(F)c(Nc4ccnc(C)n4)n3)c3ccccc32)c(F)c1` [Example 2-12-75, 2-{1-[2,6-difluoro-4-(2-methoxyethoxy)benzyl]-1H-indazol-3-yl}-5-fluoro-6-methyl-N-(2-methylpyrimidin-4-yl)pyrimidin-4-amine] is 0.18 µM.
On the same count and under the same terms, the figure for `CCOc1cc(F)c(Cn2nc(-c3ncc(CC4CNC4)c(Nc4cc(C)ncc4C)n3)c3ccccc32)c(F)c1` [Example 2-9-19, 5-(azetidin-3-ylmethyl)-N-(2,5-dimethylpyridin-4-yl)-2-[1-(4-ethoxy-2,6-difluorobenzyl)-1H-indazol-3-yl]pyrimidin-4-amine, salt with hydrochloric acid] is 0.044 µM.
Same read-out and setting: the figure for `COCCOc1cc(F)c(Cn2nc(-c3nc4c(c(Nc5ccnc(C)n5)n3)CNC4)c3ccccc32)c(F)c1` [Example 2-9-25, 2-{1-[2,6-difluoro-4-(2-methoxy-ethoxy)benzyl]-1H-indazol-3-yl}-N-(2-methylpyrimidin-4-yl)-6,7-dihydro-5H-pyrrolo[3,4-d]pyrimidin-4-amine, salt with hydrochloric acid] is 0.077 µM; for `CCOc1cc(F)c(Cn2nc(-c3ncc(CCSC)c(Nc4ccncc4)n3)c3ccccc32)c(F)c1` [Example 2-2-1, 2-[1-(4-ethoxy-2,6-difluorobenzyl)-1H-indazol-3-yl]-5-[2-(methylsulfanyl)ethyl]-N-(pyridin-4-yl)pyrimidin-4-amine] it is 0.011 µM; for `COCCOc1cc(F)c(Cn2nc(-c3nc4c(c(Nc5cc(C)ncc5C)n3)CN(CC(F)(F)F)C4)c3ccccc32)c(F)c1` [Example 2-20-17, 2-{1-[2,6-difluoro-4-(2-methoxyethoxy)benzyl]-1H-indazol-3-yl}-N-(2,5-dimethylpyridin-4-yl)-6-(2,2,2-trifluoroethyl)-6,7-dihydro-5H-pyrrolo[3,4-d]pyrimidin-4-amine] it is 0.034 µM.
The compound `COCCOc1cc(F)c(Cn2nc(-c3ncc(C4CCN(CC(F)(F)F)CC4)c(Nc4ccnc(NC(C)=O)c4)n3)c3ccccc32)c(F)c1` [Example 2-20-7, N-{4-[(2-{1-[2,6-difluoro-4-(2-methoxyethoxy)benzyl]-1H-indazol-3-yl}-5-[1-(2,2,2-trifluoroethyl)piperidin-4-yl]pyrimidin-4-yl)amino]pyridin-2-yl}acetamide] displayed an IC50 of 0.066 µM.
The same measure, in the same setting: the figure for `CCOc1cc(F)c(Cn2nc(-c3nc4c(c(Nc5ccnc(C)c5)n3)COC4)c3ccccc32)c(F)c1` [Example 2-19-16, 2-[1-(4-ethoxy-2,6-difluorobenzyl)-1H-indazol-3-yl]-N-(2-methylpyridin-4-yl)-5,7-dihydrofuro[3,4-d]pyrimidin-4-amine] is 0.1 µM; for `COCCOc1cc(F)c(Cn2nc(-c3ncc(C4CCN(CC(F)F)CC4)c(Nc4ccnc(C)n4)n3)c3ccccc32)c(F)c1` [Example 2-20-11, 5-[1-(2,2-difluoroethyl)piperidin-4-yl]-2-{1-[2,6-difluoro-4-(2-methoxyethoxy)benzyl]-1H-indazol-3-yl}-N-(2-methylpyrimidin-4-yl)pyrimidin-4-amine] it is 0.063 µM; for `CCOc1cc(F)c(Cn2nc(-c3ncc(C)c(Nc4ccncc4)n3)c3ccccc32)c(F)c1` [Example 2-2-4, 2-[1-(4-ethoxy-2,6-difluorobenzyl)-1H-indazol-3-yl]-5-methyl-N-(pyridin-4-yl)pyrimidin-4-amine] it is 0.013 µM.
On to `COCCOc1cc(F)c(Cn2nc(-c3nc4c(c(Nc5ccnc(C)n5)n3)CCC4)c3ccccc32)c(F)c1` [Example 2-12-55, 2-{1-[2,6-difluoro-4-(2-methoxyethoxy)benzyl]-1H-indazol-3-yl}-N-(2-methylpyrimidin-4-yl)-6,7-dihydro-5H-cyclopenta[d]pyrimidin-4-amine], for which the IC50 was 0.044 µM.
Same read-out and setting: the figure for `CCOc1cc(F)c(Cn2nc(-c3nc(Nc4ccnc(NC(C)=O)c4)cc(C4CCOCC4)n3)c3ccccc32)c(F)c1` [Example 2-12-90, N-[4-({2-[1-(4-ethoxy-2,6-difluorobenzyl)-1H-indazol-3-yl]-6-(tetrahydro-2H-pyran-4-yl)pyrimidin-4-yl}amino)pyridin-2-yl]acetamide] is 0.011 µM; for `COCCOc1cc(F)c(Cn2nc(-c3nc4c(c(Nc5cc(C)ncc5C)n3)CCC4)c3ccccc32)c(F)c1` [Example 2-12-57, 2-{1-[2,6-difluoro-4-(2-methoxyethoxy)benzyl]-1H-indazol-3-yl}-N-(2,5-dimethylpyridin-4-yl)-6,7-dihydro-5H-cyclopenta[d]pyrimidin-4-amine] it is 0.13 µM.
The same measure, in the same setting: next, `COCCOc1cc(F)c(Cn2nc(-c3ncc(C4CCN(CC(F)(F)F)CC4)c(Nc4ccnc(C)n4)n3)c3ccccc32)c(F)c1` [Example 2-20-10, 2-{1-[2,6-difluoro-4-(2-methoxyethoxy)benzyl]-1H-indazol-3-yl}-N-(2-methylpyrimidin-4-yl)-5-[1-(2,2,2-trifluoroethyl)piperidin-4-yl]pyrimidin-4-amine]: 0.29 µM; `CCOc1cc(F)c(Cn2nc(-c3nc(C)c(CC)c(Nc4ccncc4)n3)c3ccccc32)c(F)c1` [Example 2-12-8, 2-[1-(4-ethoxy-2,6-difluorobenzyl)-1H-indazol-3-yl]-5-ethyl-6-methyl-N-(pyridin-4-yl)pyrimidin-4-amine]: 0.016 µM.
Compound `CCOc1cc(F)c(Cn2nc(-c3nc(Nc4ccnc(NC(C)=O)c4)cc([C@H](C)O)n3)c3ccccc32)c(F)c1` [Example 2-4-9, N-[4-({2-[1-(4-ethoxy-2,6-difluorobenzyl)-1H-indazol-3-yl]-6-[(1S)-1-hydroxyethyl]pyrimidin-4-yl}amino)pyridin-2-yl]acetamide] gave an IC50 of 0.011 µM.
Same read-out and setting: next, `CCOc1cc(F)c(Cn2nc(-c3nc(Nc4ccnc(C)n4)cc(C4CCOCC4)n3)c3ccccc32)c(F)c1` [Example 2-12-89, 2-[1-(4-ethoxy-2,6-difluorobenzyl)-1H-indazol-3-yl]-N-(2-methylpyrimidin-4-yl)-6-(tetrahydro-2H-pyran-4-yl)pyrimidin-4-amine]: 1.1 µM; `COCCOc1cc(F)c(Cn2nc(-c3nc(Nc4ccnc(C)n4)cc(C(C)C)n3)c3ccccc32)c(F)c1` [Example 2-12-72, 2-{1-[2,6-difluoro-4-(2-methoxyethoxy)benzyl]-1H-indazol-3-yl}-6-isopropyl-N-(2-methylpyrimidin-4-yl)pyrimidin-4-amine]: 0.67 µM.
In turn, `CCOc1cc(F)c(Cn2nc(-c3ncc(CCNCC(F)(F)F)c(Nc4ccnc(C)n4)n3)c3ccccc32)c(F)c1` [Example 2-20-13, 2-[1-(4-ethoxy-2,6-difluorobenzyl)-1H-indazol-3-yl]-N-(2-methylpyrimidin-4-yl)-5-{2-[(2,2,2-trifluoroethyl)amino]ethyl}pyrimidin-4-amine] gave an IC50 of 0.56 µM.
Same read-out and setting: the figure for `COCCOc1cc(F)c(Cn2nc(-c3nc4c(c(Nc5ccnc(C)n5)n3)COCC4)c3ccccc32)c(F)c1` [Example 2-12-100, 2-{1-[2,6-difluoro-4-(2-methoxyethoxy)benzyl]-1H-indazol-3-yl}-N-(2-methylpyrimidin-4-yl)-7,8-dihydro-5H-pyrano[4,3-d]pyrimidin-4-amine] is 0.099 µM; for `COCCOc1cc(F)c(Cn2nc(-c3nc4c(c(Nc5ccncc5OC)n3)COCC4)c3ccccc32)c(F)c1` [Example 2-12-99, 2-{1-[2,6-difluoro-4-(2-methoxyethoxy)benzyl]-1H-indazol-3-yl}-N-(3-methoxypyridin-4-yl)-7,8-dihydro-5H-pyrano[4,3-d]pyrimidin-4-amin] it is 0.026 µM; for `COc1ccc(Cn2nc(-c3nc(C)c(F)c(Nc4ccncc4)n3)c3ccccc32)cc1` [Example 2-12-24, 5-fluoro-2-[1-(4-methoxybenzyl)-1H-indazol-3-yl]-6-methyl-N-(pyridin-4-yl)-pyrimidin-4-amine] it is 0.055 µM.
On the same count and under the same terms, next, `Cc1nccc(Nc2nc(-c3nn(Cc4c(F)cc(OCCO)cc4F)c4ccccc34)nc(C)c2F)n1` [Example 2-6-32, 2-{3,5-difluoro-4-[(3-{5-fluoro-4-methyl-6-[(2-methylpyrimidin-4-yl)amino]pyrimidin-2-yl}-1H-indazol-1-yl)methyl]phenoxy}ethanol]: 0.21 µM; `CCOc1cc(F)c(Cn2nc(-c3nc4c(c(Nc5ccncc5)n3)CNCC4)c3ccccc32)c(F)c1` [Example 2-9-16, 2-[1-(4-ethoxy-2,6-difluorobenzyl)-1H-indazol-3-yl]-N-(pyridin-4-yl)-5,6,7,8-tetrahydro-pyrido[4,3-d]pyr-imidin-4-amine]: 0.016 µM.

A further assay relates to HeLa. The assay can be described thus: Proliferation assay (HeLa cell line).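 Also: crystal violet staining of cell number, scaled between a plate stained before dosing (0%) and cells left untreated (100%), compounds tested at 0.001-10 µM, IC50 via 4-parameter fit.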 As to conditions: Homo sapiens, 96 h, read-out: Biological Assay 2: Proliferation assay (HeLa cell line) median IC50.
Procedure: Cultivated tumor cells (cells were ordered from ATCC, except HeLa-MaTu and HeLa-MaTu-ADR, which were ordered from EPO-GmbH, Berlin) were plated at a density of 1000 to 5000 cells/well, depending on the growth rate of the respective cell line, in a 96-well multititer plate in 200 μL of their respective growth medium supplemented 10% fetal calf serum. After 24 hours, the cells of one plate (zero-point plate) were stained with crystal violet (see below), while the medium of the other plates was replaced by fresh culture medium (200 μL), to which the test substances were added in various concentrations (0 μM, as well as in the range of 0.001-10 μM; the final concentration of the solvent dimethyl sulfoxide was 0.5%). The cells were incubated for 4 days in the presence of test substances. Cell proliferation was determined by staining the cells with crystal violet: the cells were fixed by adding 20 μL measuring point of an 11% glutaric aldehyde solution for 15 minutes at room temperature. After three washing cycles of the fixed cells with water, the plates were dried at room temperature. The cells were stained by adding 100 μL/measuring point of a 0.1% crystal violet solution (pH 3.0). After three washing cycles of the stained cells with water, the plates were dried at room temperature. The dye was dissolved by adding 100 μl/measuring point of a 10% acetic acid solution. […] The change of cell number, in percent, was calculated by normalization of the measured values to the absorbtion values of the zero-point plate (=0%) and the absorbtion of the untreated (0 μm) cells (=100%). The IC50 values were determined by means of a 4 parameter fit.
Consider `CCOc1cc(F)c(Cn2nc(-c3ncc(OCCN)c(Nc4ccncc4)n3)c3ccccc32)c(F)c1` [Example 3-4-1, 5-(2-aminoethoxy)-2-[1-(4-ethoxy-2,6-difluorobenzyl)-1H-indazol-3-yl]-N-(pyridin-4-yl)pyrimidin-4-amine, reference compound], for which the IC50 came out at 1.4 µM.
